Consider seven compounds from patent US9487462B2, “Inhibitors of matrix metalloproteinases” (PharmaHungary 2000 Kft., priority 2010, dated 2016).

Like-named read-outs stand apart in the source and are kept apart here.

In one series the target is MMP9 (Homo sapiens, UniProt P14780). Put plainly: MMP activity assay (fluorogenic substrate), MMP9 catalytic domain. It counts as biochemical. As to conditions: Table 2. Here is the method: (§1) MMP activity assays were conducted as follows: MMP2, MMP9, MMP13 catalytic domain was expressed in E. coli in form of inclusion bodies followed by refolding and purification.
(§2) The Protocol of the Activity Assay:
(§3) Stock solution of substrate (Mca-Lys-Pro-Leu-Gly-Leu-Dpa-Ala-Arg-NH2) was prepared in DMSO at a concentration of 6 mM. Assays were performed in an assay buffer (50 mM Tris pH 7.5, 300 mM NaCl, 10 μM ZnSO4, 5 mM CaCl2, 0.005% Brij-35). The final DMSO concentration in all assays was 1.0%. […] The assays were carried out at 37° C. The fluorescence changes, resulting from the substrate cleavage, were detected using excitation at 340 nm and emission wavelength of 405 nm using a Wallac 1420 Microplate Reader. The reaction mixtures were preincubated with the inhibitors for 30 minutes. The reactions were started by the addition of MMP substrate, and the fluorescence intensity changes were measured after 60 minutes. The obtained fluorescence values were normalized and % inhibition values calculated. Dose response curves were determined from 6 concentration points using three fold dilution steps, each concentration point was determined in duplicate. IC50 values were calculated from the dose response curves.

A further series addresses MMP2 (Homo sapiens, UniProt P08253). Kind of series: MMP activity assay (fluorogenic substrate), MMP2 catalytic domain. It counts as biochemical. As to conditions: Table 2; read-out: MMP2 IC50. Here is the method: as §1, §2, §3
The target in series [1] is T1, MMP1 (Homo sapiens (Human), UniProt P03956). Kind of series: MMP activity assay (fluorogenic substrate), MMP1. It is filed as biochemical. As to conditions: Table 2; read-out: MM1 IC50.
Target sequence in this assay (P03956 100-469, species assumed): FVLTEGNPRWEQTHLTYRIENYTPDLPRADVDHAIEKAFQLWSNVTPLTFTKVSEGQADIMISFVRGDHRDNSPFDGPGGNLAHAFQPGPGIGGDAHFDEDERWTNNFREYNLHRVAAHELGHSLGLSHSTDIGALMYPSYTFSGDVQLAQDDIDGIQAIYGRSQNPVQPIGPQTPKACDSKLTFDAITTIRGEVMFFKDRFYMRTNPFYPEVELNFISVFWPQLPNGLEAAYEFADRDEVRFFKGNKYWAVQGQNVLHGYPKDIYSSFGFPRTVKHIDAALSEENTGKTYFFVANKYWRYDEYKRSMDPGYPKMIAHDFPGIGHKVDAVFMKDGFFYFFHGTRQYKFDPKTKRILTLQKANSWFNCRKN
The target in series [2] is T2, MMP13 (Homo sapiens (Human), UniProt P45452). Put plainly: MMP activity assay (fluorogenic substrate), MMP13 catalytic domain. It counts as biochemical. Here is the method: as §1, §2
as §3, with “The fluorescence changes, resulting from the substrate cleavage, were detected using excitation at 340 nm and emission wavelength of 405 nm using a Wallac 1420 Microplate Reader.” left out

Series [3] can be described thus: Cytotoxicity, alamarBlue viability, HCT116. It counts as cell-based. The conditions noted are these: human, HCT116 colon tumor cells, 48 hours incubation, read-out: HCT116 LC50. Here is the method: (§4) Beside the inhibitory effect on MMPs we tested the cytotoxicity of the selected compounds. These measurements were done in parallel on two cell lines. One of them was the healthy human fibroblast cell line MRC-5 while the other was the human colon tumor cell line HCT116. The viability of the cells was monitored using alamarBlue. This dye is reduced by the cells resulting in an increased fluorescent signal which is proportional to the number of living cells. Cells were incubated with the dilutions of the tested compounds for 48 hours then alamarBlue was added to them for 4 hours. After that the fluorescence changes were detected using excitation at 540 nm and emission wavelength of 590 nm by a Wallac 1420 Microplate Reader. IC50 values were determined for the compounds using six concentrations and duplicate points for each concentration.

Series [4] can be described thus: Cytotoxicity, alamarBlue viability, MRC-5. It counts as cell-based. As to conditions: human, MRC-5 fibroblast cells, 48 hours incubation, read-out: MRC-5 LC50. On the procedure:
as §4
(The colour change of resazurin is a common sign of viable cells or microbes.)

For the next series, the target named is MMP-2 (Rattus norvegicus (Rat), UniProt P33436). Put plainly: In vitro zymography assay (gelatin), MMP-2. It counts as biochemical. Here is the method:
(§5) MMP-2 and MMP-9 enzymes were isolated from rat hearts and from rat spleen while human, recombinant MMP-1 and MMP-13 enzymes used were commercial. MMP-2, -9, -13 enzymes were separated by electrophoresis during non-reducing conditions on 8% SDS-polyacrylamide gels copolymerized with 2 mg/ml gelatin from porcine skin (Sigma Aldrich) while MMP-1 was separated under the same conditions on 8% SDS-polyacrylamide gels copolymerized with 2 mg/ml casein (Sigma Aldrich). […] In case of MMP-13 p-aminophenylmercuric acetate (APMA) was used for enzyme activation at 37° C. for 30 min. After electrophoresis, gels were washed in 2.5% Triton-X 100 with agitation and then incubated for 20 hrs at 37° C. in enzyme incubation buffer (50 mM Tris-HCl, pH 7.5, containing 5 mM CaCl2, 200 mM NaCl) with or without MMP inhibitor. Zymographic gels were stained in Coomassie Brilliant Blue R-250 and de-stained. Gelatin and casein zymograms were scanned. MMP activity is detected as a white zone on a blue background and the clear bands in the gel can be quantified by densitometry. The obtained density values were measured and % inhibition values calculated (Kupai et al., 2010). The table below summarizes the prescreen inhibition values determined for different MMP inhibitors on MMP1, -2, -9, -13.

The subject of series [5] is neonatal rat cardiac myocytes. Kind of series: Cytoprotective effect in cardiac myocytes subjected to hypoxia and reoxygenation. It counts as cell-based. On the procedure:
Neonatal rat hearts were digested and isolated cardiomyocytes were plated onto 24-well plastic plates at […]. The cells were maintained at 37° C. in a humidified atmosphere of 5% CO2 and 95% air in a CO2 incubator until confluence was reached. Cultures at day 3 were used for treatments. Cells were kept under normoxic or simulated ischemic conditions, i.e. the growth medium was changed to a normoxic or hypoxic solution and the cells were incubated under 95% air and 5% CO2 or 95% N2 and 5% CO2 at 37° C. for 4 h, respectively as described in detail (Gorbe A, Giricz Z, Szunyog A, Csont T, Burley D S, Baxter G F, Ferdinandy P. Role of cGMP-PKG signaling in the protection of neonatal rat cardiac myocytes subjected to simulated ischemia/reoxygenation. Basic Res Cardiol. 105:643-650, 2010). The positive control ilomastate (0.5 microM) and MMP-inhibitors at different effective concentrations (EC 5, EC 10, EC 20, and EC50 as determined in previous test examples) were applied during normoxia or simulated ischemia and also during reoxygenation. The vehicle was DMSO. Cell viability was determined after Calcein A M fluorescent staining as described (Karliner J S, Honbo N, Summers K, Gray M O, Goetzl E J. The lysophospholipids sphingosine-1-phosphate and lysophosphatidic acid enhance survival during hypoxia in neonatal rat cardiac myocytes. J Mol Cell Cardiol, 33:1713-7, 2001). Total cell count was determined after digitonin treatment to permeabilize the cells by using propidium iodine fluorescent staining (Roy S S, Hajnoczky G. Calcium, mitochondria and apoptosis studied by fluorescence measurements. Methods. 46:213-223, 2008).

The target in series [6] is T2, MMP13. Kind of series: In vitro zymography assay (gelatin), MMP-13. It is filed as biochemical. As to conditions: % ± SD; for % inhibition MMP-13 (50 kDa): 1 μM; for inhibition at 100 µM: read-out: % inhibition MMP-13 (50 kDa). On the procedure:
as §5

Series [7] deals with T1, MMP1. Put plainly: In vitro zymography assay (casein), MMP-1. It counts as biochemical. As to conditions: % ± SD. On the procedure: as §5
Target sequence in this assay (P03956 100-469): as the sequence (P03956 100-469, species assumed) above
Where [8] appears, read: % ± SD, read-out: % inhibition MMP-2 (72 kDa).

MMP-2, sequence (P33436 110-662): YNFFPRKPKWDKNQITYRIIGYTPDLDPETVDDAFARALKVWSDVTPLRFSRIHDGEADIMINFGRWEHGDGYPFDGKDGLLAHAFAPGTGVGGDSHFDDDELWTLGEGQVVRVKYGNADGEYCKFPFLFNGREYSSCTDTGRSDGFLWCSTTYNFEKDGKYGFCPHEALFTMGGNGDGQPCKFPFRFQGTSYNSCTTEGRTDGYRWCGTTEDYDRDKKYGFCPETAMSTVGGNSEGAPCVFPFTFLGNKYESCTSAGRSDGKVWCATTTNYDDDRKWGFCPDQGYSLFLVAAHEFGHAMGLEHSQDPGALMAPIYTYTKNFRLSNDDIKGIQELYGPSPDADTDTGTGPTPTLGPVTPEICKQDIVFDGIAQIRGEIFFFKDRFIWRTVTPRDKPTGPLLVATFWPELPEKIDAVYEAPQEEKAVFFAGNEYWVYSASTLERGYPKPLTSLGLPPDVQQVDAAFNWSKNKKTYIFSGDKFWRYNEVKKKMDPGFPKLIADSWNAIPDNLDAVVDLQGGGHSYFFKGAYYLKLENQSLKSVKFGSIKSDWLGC

A word on the IC50: it is the concentration at which inhibition is half-maximal. What is called inhibition is the share of the control response that was lost under treatment. Take `O=C(O)c1csc(CN(Cc2ccc(OCc3ccccc3)cc2)Cc2cccc(F)c2)n1` [Compound 5, 2-[({[4-(Benzyloxy)phenyl]methyl}[(3-fluorophenyl)methyl]amino)methyl]-1,3-thiazole-4-carboxylic acid]: the half-maximal inhibitory concentration (IC50) against MMP9 amounted to 9.8 µM; on MMP2 it was 25 µM; on MMP1 [1], 6 µM; on MMP13 [2] (Table 2, read-out: MMP13 IC50), 4.7 µM. For the same compound, the CC50 at 48 h was found to be 3.5 µM in series [3] and 43 µM in [4]. Further, the “% inhibition MMP-2 (72 kDa)” value on MMP-2 (1 μM, % ± SD) is “No inhibition”. Further, the inhibition at 100 µM at MMP-2 (setting [8]) is 11.1 ± 1.58%.
On to `O=C(O)c1csc(CN(Cc2ccc(OCc3cccnc3)cc2)Cc2cccnc2)n1` [Compound 10, 2-[({[4-(Pyridin-3-ylmethoxy)phenyl]methyl}(pyridin-3-ylmethyl)amino)methyl]-1,3-thiazole-4-carboxylic acid], for which the half-inhibitory concentration (IC50) at MMP9 was more than 500 µM; on MMP2 it was more than 500 µM; at MMP1 [1], more than 500 µM; at MMP13 [2] (Table 2, read-out: MMP13 IC50), 1.5 µM. For the same compound, the “Cytoprotective effect, % cell survival as compared to vehicle DMSO” value in series [5] (normoxia, EC5 concentration 0.3 microM) was 112 ± 3 %; in series [5] (normoxia, EC10 concentration 1.0 microM), 112 ± 1 %; in series [5] (normoxia, EC20 concentration 3.0 microM), 115 ± 3 %; in series [5] (normoxia, EC50 concentration 9.0 microM), 108 ± 1%; in [5] (simulated ischemia, EC5 concentration 0.3 microM), 117 ± 2 %; in series [5] (simulated ischemia, EC10 concentration 1.0 microM), 119 ± 2 %. Moreover, the “Cytoprotective effect, % cell survival as compared to vehicle DMSO” value in [5] (simulated ischemia, EC20 concentration 3.0 microM) is 123 ± 6 %; in series [5] (simulated ischemia, EC50 concentration 9.0 microM), 136 ± 2 %. Further, the CC50 at 48 h in [3] and in series [4] was 20 µM in each case. On MMP13 [6], the “% inhibition MMP-13 (50 kDa)” value is given as “No inhibition”. Besides, at MMP13 [6], the inhibition at 100 µM is 53.6 ± 18.9%.
On to `O=C(O)c1csc(CN(Cc2ccc(OCc3ccncc3)cc2)Cc2cccnc2)n1` [Compound 12, 2-{[(Pyridin-3-ylmethyl)({[4-(pyridin-4-ylmethoxy)phenyl]methyl})amino]methyl}-1,3-thiazole-4-carboxylic acid], for which the half-maximal inhibitory concentration (IC50) is more than 500 µM at MMP9; more than 500 µM at MMP2; more than 500 µM at MMP1 [1]; 8.5 µM on MMP13 [2] (Table 2, read-out: MMP13 IC50). The figures for the CC50 at 48 h in [3] and in [4] were 37 µM and 90 µM, respectively. On MMP-2 (1 μM, % ± SD, read-out: % inhibition MMP-2 (72 kDa)), the inhibition at 1 µM was 5.59 ± 11.8%. The inhibition at 100 µM on MMP-2 (setting [8]) is 4.78 ± 7.18%.
As for `O=C(O)c1csc(CN(Cc2ccc(OCc3ccccc3)cc2)Cc2cccnc2)n1` [Compound 14, 2-[({[4-(Benzyloxy)phenyl]methyl}(pyridin-3-ylmethyl)amino)methyl]-1,3-thiazole-4-carboxylic acid], the IC50 at MMP9 was more than 500 µM; at MMP2, 90 µM; at MMP1 [1], 240 µM; at MMP13 [2] (Table 2, read-out: MMP13 IC50), 8 µM. Besides, the CC50 at 48 h worked out at 19 µM in series [3] and 42 µM in series [4]. Moreover, the “% inhibition MMP-2 (72 kDa)” value on MMP-2 (1 μM, % ± SD) was “No nhibiton”. Also, the inhibition at 100 µM at MMP-2 (setting [8]) was found to be 100%.
With `O=C(O)c1c[nH]c(CN(Cc2ccc(F)cc2)Cc2ccc(OC(c3ccccc3)c3ccccc3)cc2)n1` [Compound 22, 2-[({[4-(Diphenylmethoxy)phenyl]methyl}[(4-fluorophenyl)methyl]amino)methyl]-1H-imidazole-4-carboxylic acid], the IC50 against MMP9 is 8 µM; on MMP2, 35 µM; on MMP1 [1], 16 µM; at MMP13 [2] (Table 2, read-out: MMP13 IC50), 0.28 µM. Also, the CC50 at 48 h in series [3] came to 0.7 µM; in [4], 2 µM. Also, at MMP13 [6], the “% inhibition MMP-13 (50 kDa)” value is recorded as “No inhibition”. Besides, the inhibition at 100 µM on MMP13 [6] turned out to be 71.7 ± 4.49%.
With `O=C(O)c1c[nH]c(CN(Cc2ccc(F)cc2)Cc2ccc(OCc3ccccc3)cc2)n1` [Compound 30, 2-[({[4-(Benzyloxy)phenyl]methyl}[(4-fluorophenyl)methyl]amino)methyl]-1H-imidazole-4-carboxylic acid], the concentration for half-maximal inhibition (IC50) is 13 µM against MMP9; 6.6 µM at MMP2; 3.9 µM at MMP1 [1]; 1.76 µM at MMP13 [2] (Table 2, read-out: MMP13 IC50); 0.081 µM on MMP-2 (zymography, Table 8, read-out: IC50 on MMP-2). In addition, the CC50 at 48 h in series [3] was determined as 6 µM; in series [4], 30 µM. In addition, on MMP-2 (1 μM, % ± SD), the “% inhibition MMP-2 (72 kDa)” value is “No inhibition”. Besides, the results for the inhibition at 100 µM on MMP-2 (setting [8]), at MMP1 [7] (read-out: % inhibition MMP-1 (52 kDa)) and on MMP1 [7] (read-out: % inhibition MMP-1 (55 kDa)) were 100%, 63.4 ± 18.3% and 61.1 ± 6.78%, respectively. For the same compound, at MMP1 [7] (1 μM), the “% inhibition MMP-1 (52 kDa)” value is on record as “No inhibition”. For the same compound, at MMP1 [7] (1 μM), the “% inhibition MMP-1 (55 kDa)” value is “No inhibition”.
With `CNC(=O)[C@H](Cc1c[nH]c2ccccc12)NC(=O)[C@@H](CC(=O)NO)CC(C)C` [ilomastat, reference compound], the IC50 came out at 0.0002 µM on MMP13 [2] (read-out: IC50 on MMP13) and 0.00071 µM against MMP-2. Also, in series [5] (positive control, 0.5 microM), the “cytoprotective effect as compared to vehicle-treated cells” value is “approximately 120%”.
